Experiment [1] has as its target Cannabinoid receptor (Rattus norvegicus, UniProt Q9QZN9+P20272). Kind of experiment: Displacement of 0.5 nM [3H](R)-(+)-WIN-55212-2 from Cannabinoid receptor of rat cerebellar membranes. Format: cell membranes, Membrane.
The test system of experiment [2] is Mus musculus. Kind of experiment: Effective dose required for inhibition of oral acetylcholine (ACh) writhing activity in mice at 100 mg/Kg dose. Type of experiment: functional. In general terms: Writhing tests count abdominal constrictions after an irritant is injected.
Experiment [3] deals with Mus musculus. Kind of experiment: Effective dose required for inhibition of oral acetylcholine (ACh) writhing activity in mice at 10 mg/Kg dose. Type of experiment: functional.
For experiment [4], the system named is Mus musculus. As to the kind of experiment: Concentration required for inhibition of electrically stimulated contraction of mouse vas deferens […]. Format: functional.
The target of experiment [5] is Cannabinoid receptor (Rattus norvegicus) (UniProt Q9QZN9+P20272). As to the kind of experiment: Inhibition to displace 50% of 0.5 nM [3H](R)-(+)-WIN-55212-2 binding to Cannabinoid receptor in rat cerebellar membranes at 1 uM concentration. The note with it: Membrane. Type of experiment: cell membranes.
The species entered for experiment [6] is Mus musculus. As to the kind of experiment: Effective dose required for inhibition of oral acetylcholine (ACh) writhing activity in mice. Type of experiment: functional.
A short description of experiment [7]: Compound was tested for inhibitory activity against prostaglandin synthetase in mouse brain microsomes.

Chain of Cannabinoid receptor (Rattus norvegicus) (P20272 whole entry, looked up): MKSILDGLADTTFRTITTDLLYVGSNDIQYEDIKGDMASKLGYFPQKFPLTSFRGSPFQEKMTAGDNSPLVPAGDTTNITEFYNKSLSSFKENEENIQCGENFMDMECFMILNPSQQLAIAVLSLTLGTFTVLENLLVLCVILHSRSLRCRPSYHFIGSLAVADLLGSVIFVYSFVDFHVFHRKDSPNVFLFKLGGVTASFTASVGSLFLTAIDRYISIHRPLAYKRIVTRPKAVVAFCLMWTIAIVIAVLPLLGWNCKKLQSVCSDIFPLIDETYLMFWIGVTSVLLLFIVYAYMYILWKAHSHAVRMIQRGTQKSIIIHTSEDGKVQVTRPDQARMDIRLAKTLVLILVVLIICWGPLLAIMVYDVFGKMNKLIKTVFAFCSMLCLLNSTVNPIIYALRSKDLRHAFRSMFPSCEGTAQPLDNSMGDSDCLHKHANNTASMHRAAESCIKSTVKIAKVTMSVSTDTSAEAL
Chain of Cannabinoid receptor (Rattus norvegicus) (Q9QZN9 whole entry, looked up): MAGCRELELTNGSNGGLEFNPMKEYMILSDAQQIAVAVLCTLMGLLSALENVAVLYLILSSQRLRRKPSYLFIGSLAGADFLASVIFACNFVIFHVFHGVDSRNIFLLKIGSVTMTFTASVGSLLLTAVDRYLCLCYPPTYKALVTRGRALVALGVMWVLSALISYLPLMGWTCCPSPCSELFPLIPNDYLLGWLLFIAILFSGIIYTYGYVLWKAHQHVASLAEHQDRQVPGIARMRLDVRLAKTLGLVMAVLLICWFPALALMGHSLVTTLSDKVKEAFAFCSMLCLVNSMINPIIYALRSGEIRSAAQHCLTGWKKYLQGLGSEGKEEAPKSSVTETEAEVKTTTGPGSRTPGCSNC

By IC50 is commonly meant the concentration needed to halve the response being measured. For orientation: inhibition in vivo means the share of the control response that was lost under treatment. Read a low inhibition in vivo as a response near the control. Take `COc1ccc(C=C2C(C)=C(CCN3CCOCC3)c3ccccc32)cc1`: the IC50 in experiment [1] was found to be 45000 nM. In experiment [2], the inhibition in vivo at 100 mg/kg was found to be 30%.
On to `C1=C(CCN2CCOCC2)c2ccccc2/C1=C/c1cccc2ccccc12`, for which the IC50 in experiment [1] stood at 1000 nM; in experiment [4] it was 7 nM. The compound further gave an inhibition in vivo at 10 mg/kg in experiment [3] of 83%.
Regarding `COc1ccc(C=C2C(C)=C(CCN3CCOCC3)c3ccccc32)c2ccccc12`, the inhibition in vivo at 100 mg/kg in experiment [2] was found to be 39%. The compound also had an IC50 in experiment [4] of 350 nM.
In experiment [4], `C[S+]([O-])c1ccc(/C=C2\C=C(CCN3CCOCC3)c3ccccc32)cc1` (centres undefined) returned an IC50 of 190 nM.
Consider `COc1ccc(/C=C2\C=C(CCN3CCOCC3)c3ccccc32)cc1`, for which the IC50 in experiment [1] stood at 58 nM; in experiment [4], 80 nM.
By inhibition is commonly meant the drop in the measured response relative to a control, in per cent. Turning to `C1=C(CCN2CCOCC2)c2ccccc2/C1=C/c1ccccc1`, half-maximal inhibition in experiment [4] (IC50) required 79 nM. Moreover, in experiment [5], the inhibition was found to be 33%.
As to `CC1=C(CCN2CCOCC2)c2ccccc2C1=Cc1cccc2ccccc12`, the IC50 in experiment [1] worked out at 10000 nM; in experiment [4] it was 45 nM.
`Oc1ccc(/C=C2\C=C(CCN3CCOCC3)c3ccccc32)c2ccccc12` displayed an IC50 in experiment [1] of 97000 nM.
For `COc1ccc(/C=C2\C=C(CCN3CCOCC3)c3ccccc32)c2ccccc12`, the figures for the IC50 in experiment [1] and in experiment [4] were 900 nM and 8 nM, respectively.
Broadly, the ED50 is the midpoint of the dose-response relation. In turn, `COc1ccc(C(=O)c2c(C)n(CCN3CCOCC3)c3ccccc23)cc1` [PRAVADOLINE] came in with an ED50 in experiment [6] of 41 mg/kg. Also, the IC50 in experiment [4] came to 530 nM; in experiment [7] it was 3500 nM.
As for `CSc1ccc(/C=C2\C=C(CCN3CCOCC3)c3ccccc32)cc1`, the IC50 in experiment [1] came out at 96000 nM. The compound also had an ED50 in experiment [6] of 50 mg/kg.
On to `COc1ccc(/C=C2\C=C(CCN3CCOCC3)c3ccccc32)cc1OC`, for which the IC50 came out at 28000 nM in experiment [1] and 19 nM in experiment [4].

(Values after ChEMBL document CHEMBL1151517, “Morpholinoalkylindenes as antinociceptive agents: Novel cannabinoid receptor agonists” (Bioorg Med Chem Lett, 1995).)
